Results as given in patent US8569344B2, “N-piperidinyl acetamide derivatives as calcium channel blockers” (Zalicus Pharmaceuticals Ltd., priority 2008, dated 2013).
Like-named read-outs stand apart in the source and are kept apart here.

What was measured:
Format in all cases: cell-based
hERG K+ channel = hERG K+ channel (Homo sapiens, UniProt Q12809); test: hERG K+ Channel Block
[1] = target: T1, human α1H T-type channels (Homo sapiens, UniProt O95180); test: T-type calcium channel block, whole cell patch clamp in HEK cells (α1H); conditions: HEK cells, patch clamp, mainly non-inactivated protocol; values above 10 μM shown as 10 μM; read-out: T-type Calcium Channel Block α1H IC50
T1 construct: expressed in transfected cells; host or cells: HEK 293

[2] = target: T2, human α1G T-type channels (Homo sapiens, UniProt O43497); test: T-type calcium channel block, whole cell patch clamp in HEK cells (α1G); conditions: HEK cells, patch clamp, mainly non-inactivated protocol; values above 10 μM shown as 10 μM, below 0.30 μM shown as 0.30 μM; read-out: T-type Calcium Channel Block α1G IC50
T2 construct: expressed in transfected cells; host or cells: HEK 293

Chain of hERG K+ channel (Q12809 whole entry): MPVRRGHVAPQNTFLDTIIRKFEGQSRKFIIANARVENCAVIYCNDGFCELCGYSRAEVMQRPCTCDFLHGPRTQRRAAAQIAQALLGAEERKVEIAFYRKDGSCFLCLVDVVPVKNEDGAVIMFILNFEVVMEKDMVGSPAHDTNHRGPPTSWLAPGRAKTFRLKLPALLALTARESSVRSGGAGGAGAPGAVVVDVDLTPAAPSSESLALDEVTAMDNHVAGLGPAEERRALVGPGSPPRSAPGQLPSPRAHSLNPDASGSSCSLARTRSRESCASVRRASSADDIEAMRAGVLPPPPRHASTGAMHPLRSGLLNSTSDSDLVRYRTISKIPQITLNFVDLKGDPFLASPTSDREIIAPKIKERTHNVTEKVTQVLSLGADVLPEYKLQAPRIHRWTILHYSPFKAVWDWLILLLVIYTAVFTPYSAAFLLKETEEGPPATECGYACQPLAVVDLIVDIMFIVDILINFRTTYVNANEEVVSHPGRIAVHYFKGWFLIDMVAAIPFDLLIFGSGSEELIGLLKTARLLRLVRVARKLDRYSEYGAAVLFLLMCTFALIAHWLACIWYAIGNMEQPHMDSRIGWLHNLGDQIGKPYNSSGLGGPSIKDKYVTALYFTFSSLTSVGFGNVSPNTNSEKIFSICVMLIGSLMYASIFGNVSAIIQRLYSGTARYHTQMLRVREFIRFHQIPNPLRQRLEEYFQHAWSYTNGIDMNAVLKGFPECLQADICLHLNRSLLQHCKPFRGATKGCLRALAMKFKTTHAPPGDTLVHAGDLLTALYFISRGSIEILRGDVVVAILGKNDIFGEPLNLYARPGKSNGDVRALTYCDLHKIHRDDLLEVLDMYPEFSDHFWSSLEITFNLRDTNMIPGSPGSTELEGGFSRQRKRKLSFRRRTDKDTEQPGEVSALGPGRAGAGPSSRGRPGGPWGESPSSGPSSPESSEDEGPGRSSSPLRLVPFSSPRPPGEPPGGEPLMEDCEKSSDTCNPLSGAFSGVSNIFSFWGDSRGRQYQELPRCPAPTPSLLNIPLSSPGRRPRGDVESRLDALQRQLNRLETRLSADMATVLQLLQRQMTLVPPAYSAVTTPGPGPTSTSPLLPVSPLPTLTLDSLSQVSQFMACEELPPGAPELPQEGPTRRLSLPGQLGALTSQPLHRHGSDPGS
T1 sequence (O95180 whole entry): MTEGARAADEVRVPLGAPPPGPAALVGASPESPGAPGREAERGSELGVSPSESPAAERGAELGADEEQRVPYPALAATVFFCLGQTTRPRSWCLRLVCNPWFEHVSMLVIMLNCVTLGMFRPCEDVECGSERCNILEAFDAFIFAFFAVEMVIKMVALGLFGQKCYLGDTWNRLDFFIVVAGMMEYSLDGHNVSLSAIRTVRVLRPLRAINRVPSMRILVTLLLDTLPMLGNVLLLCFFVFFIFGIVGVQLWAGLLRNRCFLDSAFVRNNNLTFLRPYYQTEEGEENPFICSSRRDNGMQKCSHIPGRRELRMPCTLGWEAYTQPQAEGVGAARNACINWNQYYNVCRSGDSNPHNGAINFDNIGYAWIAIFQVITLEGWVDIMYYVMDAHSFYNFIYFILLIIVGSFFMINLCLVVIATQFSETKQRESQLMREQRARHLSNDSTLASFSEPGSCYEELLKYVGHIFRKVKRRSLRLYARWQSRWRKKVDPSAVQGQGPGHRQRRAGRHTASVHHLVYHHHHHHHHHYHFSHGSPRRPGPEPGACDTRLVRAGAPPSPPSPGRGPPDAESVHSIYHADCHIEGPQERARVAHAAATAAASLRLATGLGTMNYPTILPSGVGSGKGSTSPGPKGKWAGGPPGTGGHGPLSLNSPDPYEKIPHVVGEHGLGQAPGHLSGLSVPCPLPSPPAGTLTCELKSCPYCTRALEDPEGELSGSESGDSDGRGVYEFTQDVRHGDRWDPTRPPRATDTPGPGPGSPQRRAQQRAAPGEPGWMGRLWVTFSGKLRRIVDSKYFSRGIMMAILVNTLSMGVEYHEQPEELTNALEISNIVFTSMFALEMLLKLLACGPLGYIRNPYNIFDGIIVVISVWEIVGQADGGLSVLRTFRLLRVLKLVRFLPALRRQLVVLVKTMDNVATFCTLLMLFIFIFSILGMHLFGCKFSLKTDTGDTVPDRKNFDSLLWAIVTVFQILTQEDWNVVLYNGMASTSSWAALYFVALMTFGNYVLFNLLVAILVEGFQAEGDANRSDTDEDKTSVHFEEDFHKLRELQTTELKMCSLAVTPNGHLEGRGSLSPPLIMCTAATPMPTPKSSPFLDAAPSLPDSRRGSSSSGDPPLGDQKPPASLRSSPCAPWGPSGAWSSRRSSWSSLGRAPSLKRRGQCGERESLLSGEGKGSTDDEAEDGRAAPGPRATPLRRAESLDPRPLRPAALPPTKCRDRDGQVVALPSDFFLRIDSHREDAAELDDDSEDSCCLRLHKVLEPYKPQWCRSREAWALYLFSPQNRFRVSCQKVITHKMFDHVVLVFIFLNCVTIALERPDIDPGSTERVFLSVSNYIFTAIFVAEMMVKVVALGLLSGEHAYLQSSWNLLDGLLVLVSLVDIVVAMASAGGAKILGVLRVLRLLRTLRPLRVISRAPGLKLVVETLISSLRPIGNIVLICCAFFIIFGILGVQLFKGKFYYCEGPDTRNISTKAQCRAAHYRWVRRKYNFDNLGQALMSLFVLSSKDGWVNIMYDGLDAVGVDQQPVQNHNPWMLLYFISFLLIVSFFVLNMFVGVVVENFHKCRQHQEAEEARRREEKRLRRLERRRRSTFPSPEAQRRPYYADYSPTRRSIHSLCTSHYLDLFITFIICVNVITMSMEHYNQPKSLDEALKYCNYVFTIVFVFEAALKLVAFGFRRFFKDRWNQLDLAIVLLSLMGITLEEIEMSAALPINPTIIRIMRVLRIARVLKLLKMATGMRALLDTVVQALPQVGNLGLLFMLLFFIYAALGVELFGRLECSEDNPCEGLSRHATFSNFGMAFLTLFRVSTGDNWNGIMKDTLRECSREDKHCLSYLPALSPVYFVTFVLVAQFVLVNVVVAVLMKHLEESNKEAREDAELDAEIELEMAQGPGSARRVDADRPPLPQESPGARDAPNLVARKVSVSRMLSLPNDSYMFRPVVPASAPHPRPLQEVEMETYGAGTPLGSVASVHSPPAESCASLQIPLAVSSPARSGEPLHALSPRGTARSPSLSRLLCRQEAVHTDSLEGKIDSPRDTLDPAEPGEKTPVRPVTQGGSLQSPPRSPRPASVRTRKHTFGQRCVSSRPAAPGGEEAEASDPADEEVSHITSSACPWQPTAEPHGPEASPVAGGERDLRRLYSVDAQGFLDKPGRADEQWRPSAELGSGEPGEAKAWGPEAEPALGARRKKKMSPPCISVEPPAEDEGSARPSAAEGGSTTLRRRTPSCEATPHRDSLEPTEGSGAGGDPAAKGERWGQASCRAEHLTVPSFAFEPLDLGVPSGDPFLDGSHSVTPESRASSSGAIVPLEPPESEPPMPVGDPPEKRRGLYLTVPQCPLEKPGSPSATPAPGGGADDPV

| IC50 [1] [nM] | IC50 [2] [nM] | SMILES | IC50 (hERG K+ channel) [nM] | IC50 (hERG K+ channel; human) [nM] |
| --- | --- | --- | --- | --- |
| 90 | < 300 | CC(C)(C)NC(=O)CN1CCC(CNC(=O)c2cccc(Br)c2)CC1 [Compound 374, 3-bromo-N-((1-(2-(tert-butylamino)-2-oxoethyl)piperidin-4-yl)methyl) benzamide] | 7800 |  |
| 30 | < 300 | CC(C)(NC(=O)CN1CCC(CNC(=O)c2cccc(Cl)c2)CC1)C(F)(F)F [Compound 460, 3-chloro-N-((1-(2-oxo-2-(1,1,1-trifluoro-2-methylpropan-2-ylamino)ethyl)piperidin-4-yl)methyl)benzamide] | 6900 |  |
| 120 | < 300 | O=C(NCC1CCN(CCNC(=O)C2(C(F)(F)F)CC2)CC1)c1cccc(Br)c1 [Compound 501, 3-bromo-N-((1-(2-(1-(trifluoromethyl)cyclopropanecarbox-amido)ethyl)piperidin-4-yl)methyl) benzamide] | 5600 |  |
| 350 | < 300 | COCC(C)(C)NC(=O)CN1CCC(CNC(=O)c2cc(F)cc(OC)c2)CC1 [Compound 567, 3-fluoro-5-methoxy-N-((1-(2-(1-methoxy-2-methylpropan-2-ylamino)-2-oxoethyl)piperidin-4-yl)methyl)benzamide] |  | ≥ 17000 |
| 200 | < 300 | Cc1cc(F)cc(C(=O)NCC2CCN(CC(=O)NC(C)(C)C)CC2)c1 [Compound 363, N-((1-(2-(tert-buylamino)-2-oxoethyl)piperidin-4-yl)methyl)-3-fluoro-5-methylbenzamide] |  | ≥ 8300 |
| 150 | < 300 | COc1cc(F)cc(C(=O)NCC2CCN(CCNC(=O)C(C)(C)C(F)(F)F)CC2)c1 [Compound 490, 3-fluoro-5-methoxy-N-((1-(2-(3,3,3-trifluoro-2,2-dimethylpropanamido)ethyl)piperidin-4-yl)methyl)benzamide] | 10900 |  |
| 60 | < 300 | COc1cc(F)cc(C(=O)NCC2CCN(CC(=O)NC3(C)CCC3)CC2)c1 [Compound 477, 3-fluoro-5-methoxy-N-((1-(2-(1-methylcyclobutylamino)-2-oxoethyl)piperidin-4-yl)methyl) benzamide] |  | ≥ 16600 |
| 500 | 20 | CS(=O)(=O)NC1(CN2CCC(CC(=O)Nc3cc(C(F)(F)F)cc(C(F)(F)F)c3)CC2)CCCC1 [Compound 160, N-(3,5-bis(trifluoromethyl)phenyl)-2-(1-((1-(methylsulfonamido)cyclopentyl)methyl)piperidin-4-yl)acetamide] | 190 |  |
| 170 | < 300 | CN(C(=O)CN1CCC(CNC(=O)c2cc(F)cc(Cl)c2)CC1)C(C)(C)C [Compound 544, N-((1-(2-(tert-butyl(methyl)amino)-2-oxoethyl)piperidin-4-yl)methyl)-3-chloro-5-fluorobenzamide] | 6000 |  |
| 410 | 580 | CN(C(=O)CN1CCC(CNC(=O)c2cccc(Cl)c2)CC1)C(C)(C)C [Compound 543, N-((1-(2-(tert-butyl(methyl)amino)-2-oxoethyl)piperidin-4-yl)methyl)-3-chlorobenzamide] | 5200 |  |
| 50 | < 300 | COc1cc(OC)cc(C(=O)NCC2CCN(CC(=O)NC(C)(C)C(F)(F)F)CC2)c1 [Compound 457, 3,5-dimethoxy-N-((1-(2-oxo-2-(1,1,1-trifluoro-2-methylpropan-2-ylamino)ethyl)piperidin-4-yl)methyl)benzamide] |  | ≥ 16600 |
| 70 | < 300 | O=C(NCC1CCN(CC(=O)N2CCC[C@H]2C(F)(F)F)CC1)c1cc(F)cc(Cl)c1 [Compound 470, (S)-3-chloro-5-fluoro-N-((1-(2-oxo-2-(2-(trifluoromethyl)pyrrolidin-1-yl)ethyl)piperidin-4-yl)methyl)benzamide] | 2600 |  |
| 410 | 310 | COc1cc(F)cc(C(=O)NCC2CCN(CC(=O)N(C)C(C)(C)C)CC2)c1 [Compound 541, N-((1-(2-(tert-butyl(methyl)amino)-2-oxoethyl)piperidin-4-yl)methyl)-3-fluoro-5-methoxybenzamide] |  | ≥ 17000 |
| 360 | 2470 | CC(C)(C)[S+]([O-])NCCN1CCC(CNC(=O)c2cc(F)cc(C(F)(F)F)c2)CC1 (stereo not drawn) [Compound 537, N-((1-(2-(1,1-dimethylethylsulfinamido)ethyl)piperidin-4-yl)methyl)-3-fluoro-5-(trifluoromethyl)benzamide] |  | ≥ 17000 |
| 5100 | 720 | O=C(CC1CCN(CC(O)C(F)(F)F)CC1)Nc1cc(C(F)(F)F)cc(C(F)(F)F)c1 (stereo not drawn) [Compound 178, N-(3,5-bis(trifluoromethyl)phenyl)-2-(1-(3,3,3-trifluoro-2-hydroxypropyl)piperidin-4-yl)acetamide] | 1600 |  |
| 140 | < 300 | COc1cc(F)cc(C(=O)NCC2CCN(CCNC(=O)C3(C(F)(F)F)CC3)CC2)c1 [Compound 499, 3-fluoro-5-methoxy-N-((1-(2-(1-(trifluoromethyl)cyclopropanecarbox-amido)ethyl)piperidin-4-yl)methyl) benzamide] | 11100 |  |
| 60 | < 300 | CN(C(=O)CN1CCC(CNC(=O)c2cc(Cl)cc(Cl)c2)CC1)C(C)(C)C [Compound 552, N-((1-(2-(tert-butyl(methyl)amino)-2-oxoethyl)piperidin-4-yl)methyl)-3,5-dichlorobenzamide] | 1800 |  |
| 140 | < 300 | CC(C)(C)NC(=O)CN1CCC(CNC(=O)c2cccc(C(F)(F)F)c2)CC1 [Compound 371, N-((1-(2-(tert-butylamino)-2-oxoethyl)piperidin-4-yl)methyl)-3-(trifluoromethyl)benzamide] | 14700 |  |
| 170 | < 300 | Cc1cc(C)cc(C(=O)NCC2CCN(CC(=O)NC(C)(C)C)CC2)c1 [Compound 362, N-((1-(2-(tert-butylamino)-2-oxoethyl)piperidin-4-yl)methyl)-3,5-dimethylbenzamide] |  | ≥ 8300 |
| 160 | < 300 | CC(C)(C)NC(=O)CN1CCC(CNC(=O)c2cc(F)cc(C(F)(F)F)c2)CC1 [Compound 376, N-((1-(2-(tert-butylamino)-2-oxoethyl)piperidin-4-yl)methyl)-3-fluoro-5-(trifluoromethyl)benzamide] | 11000 |  |
| 40 | < 300 | O=C(NCC1CCN(CCNC(=O)C2(C(F)(F)F)CC2)CC1)c1cc(F)cc(Cl)c1 [Compound 472, 3-chloro-5-fluoro-N-((1-(2-(1-(trifluoromethyl)cyclopropanecarbox-amido)ethyl)piperidin-4-yl)methyl) benzamide] | 2800 |  |
| 20 | < 300 | CC(C)(NC(=O)CN1CCC(CNC(=O)c2cc(F)cc(Cl)c2)CC1)C(F)(F)F [Compound 461, 3-chloro-5-fluoro-N-((1-(2-oxo-2-(1,1,1-trifluoro-2-methylpropan-2-ylamino)ethyl)piperidin-4-yl)methyl)benzamide] | 7400 |  |
| 220 | < 300 | CC(C)(C)C(=O)NCCN1CCC(CC(=O)Nc2cc(C(F)(F)F)cc(C(F)(F)F)c2)CC1 [Compound 334, N-(2-(4-(2-(3,5-bis(trifluoromethyl)phenylamino)-2-oxoethyl)piperidin-1-yl)ethyl)pivalamide] | 920 |  |
| 450 | 980 | CN(C(=O)CN1CCC(CNC(=O)c2cccc(C(F)(F)F)c2)CC1)C(C)(C)C [Compound 542, N-((1-(2-(tert-butyl(methyl)amino)-2-oxoethyl)piperidin-4-yl)methyl)-3-(trifluoromethyl)benzamide] | 6400 |  |
| 90 | < 300 | O=C(NCC1CCN(CC(=O)N2CCC[C@H]2C(F)(F)F)CC1)c1cccc(Br)c1 [Compound 468, (S)-3-bromo-N-((1-(2-oxo-2-(2-(trifluoromethyl)pyrrolidin-1-yl)ethyl)piperidin-4-yl)methyl)benzamide] | 4200 |  |
| 90 | < 300 | O=C(NCC1CCN(CCNC(=O)C2(C(F)(F)F)CCC2)CC1)c1cc(F)cc(Cl)c1 [Compound 511, 3-chloro-5-fluoro-N-((1-(2-(1-(trifluoromethyl)cyclobutanecarboxamido)ethyl)piperidin-4-yl)methyl)benzamide] | 2900 |  |
| 60 | < 300 | COCC(C)(C)NC(=O)CN1CCC(CNC(=O)c2cc(F)cc(Cl)c2)CC1 [Compound 538, 3-chloro-5-fluoro-N-((1-(2-(1-methoxy-2-methylpropan-2-ylamino)-2-oxoethyl)piperidin-4-yl)methyl)benzamide] | 13000 |  |
| 210 | 470 | CN(C(=O)CN1CCC(CNC(=O)c2cccc(OC(F)(F)F)c2)CC1)C(C)(C)C [Compound 545, N-((1-(2-(tert-butyl(methyl)amino)-2-oxoethyl)piperidin-4-yl)methyl)-3-(trifluoromethoxy)benzamide] | 6600 |  |
| 120 | < 300 | CC(C)NC(=O)CN1CCC(CNC(=O)c2cc(C(F)(F)F)cc(C(F)(F)F)c2)CC1 [Compound 344, N-((1-(2-(isopropylamino)-2-oxoethyl)piperidin-4-yl)methyl)-3,5-bis(trifluoromethyl)benzamide] | 9100 |  |
| 70 | < 300 | CC(C)(C)C(O)CN1CCC(CC(=O)Nc2cc(C(F)(F)F)cc(C(F)(F)F)c2)CC1 (stereo not drawn) [Compound 153, N-(3,5-bis(trifluoromethyl)phenyl)-2-(1-(2-hydroxy-3,3-dimethylbutyl)piperidin-4-yl)acetamide] | 2800 |  |
